From patent US9757402B2, “Method for measuring cell-to-cell transmission of α-synuclein aggregates using bimolecular fluorescence complementation system and method for screening a substance for preventing or treating neurodegenerative disease using the same” (KONKUK UNIVERSITY INDUSTRIAL COOPERATION CORP, priority 2014, dated 2017)

Experiments:
Format in all cases: in vivo, Caenorhabditis elegans
[1] = test system: single tissue expression lines carrying V1S or SV2 alone in N2 and daf-16(mu86) mutant worms; experiment: GlcNAc treatment of single tissue expression lines (V1S or SV2 alone)
Procedure: Pmyo-2::V1S and Pflp-21::SV2-ICR-DsRed plasmids were co-injected into the gonads of late L4-stage daf-2(e1370) and daf-16(mu86) mutant worms with the pRF4. As a control for aging related BiFC models, Pmyo-2::V1S or Pflp-21::SV2::ICR::DsRed alone was injected into the gonads of late L4-stage of N2 and daf-16(mu86) mutant worms with pRF4. After several transgenic lines containing the introduced plasmids were obtained, three representative lines in each mutant background were used for experiments.
Worms were immobilized with 10 mM sodium azide in M9 buffer, mounted on 2% agar pads, and covered with a coverslip. Images of the worms were acquired using Olympus FV1000 confocal laser scanning microscopy (Olympus, Tokyo, Japan).
(§1) N-acetylglucosamine (GlcNAc) (Sigma) was dissolved in distilled water to prepare 1 M as stock solution. The stock solution was diluted with LB liquid medium. The L4-stage worms of each transgenic line were transferred to NGM plates containing a final concentration of 10 mM GlcNAc.
Adult worms of each strain were washed with M9 buffer and subsequently with PBS containing 1% Triton X-100. The worm pellet was sonicated in PBS containing 1% Triton X-100, 1% (v/v) protease inhibitor cocktail. Protein samples (500 ng) were loaded onto nitrocellulose membranes, which were then dried and incubated in blocking solution. The primary antibodies used for dot blotting were the monoclonal anti-α-synuclein antibodies 274 mAb and Syn-O2, the latter of which is specific for aggregated α-synuclein. Chemiluminescence detection was performed using the LAS-3000 luminescence image analyzer and Multi Gauge (v3.0) software.

[2] = test system: lysosomal genes, sqst-1/p62; experiment: Expression of lysosomal and autophagy genes (qPCR) upon GlcNAc treatment
Procedure: as §1
Adult transgenic worms derived from daf-16(mu86) mutants with or without hlh-30p::hlh-30 expression were collected, and washed in M9 buffer. The worms in the buffer were sonicated and the samples were subjected to several freeze-thaw cycles using liquid nitrogen. RNA was extracted with Trizol (Invitrogen, Carlsbad, Calif.) and purified using the RNeasy kit (Qiagen, Valencia, Calif., USA). Each cDNA was synthesized from 500 ng of total RNA using the iScript cDNA synthesis kit (Bio-Rad, Hercules, Calif.). For real-time PCR, target genes and specific primers were mixed with SYBR Premix Ex Taq II (Takara, Shiga, Japan) in 96-well plates. Specific primers previously designed by other group were used (Lapierre, L. R., et al. (2013). The TFEB orthologue HLH-30 regulates autophagy and modulates longevity in Caenorhabditis elegans. Nat. Commun 4, 2267). The DNA products were analyzed using the 7500 Real-Time PCR system (Applied Biosystems, Foster City, Calif.). […]

[3] = test system: asp-4(ok2693); V1S+SV2 and asp-1(tm666); V1S+SV2 worms; experiment: Epistasis analysis: GlcNAc treatment of cathepsin mutant BiFC worms; conditions: asp-1 and asp-4 mutant transgenic animals, in contrast to V1S+SV2 worms
From the text: A plasmid expressing hlh-30p::hlh-30::gfp was obtained from Dr. Malene Hansen (Sanford-Burnham Medical Research Institute, CA, USA). The plasmid hlh-30p::hlh-30 was designed to introduce codon before the GFP coding sequence using a QuickChange Site-Directed Mutagenesis Kit to inhibit GFP expression. As a control, each Pmyo-2::V1S or Pflp 21::SV2-ICR-DsRed and hlh-30p::hlh-30 were co-injected into the gonads of late L4-stage N2 worm with pRF4. The plasmids expressing Pmyo-2::V1S, Pflp-21::SV2-ICR-DsRed and hlh-30p::hlh-30 were co-injected into the gonads of late L4-stage daf-16(mu86) mutant worms with pRF4. To analyze lysosomal dysfunction, asp-4(ok2693) and asp-1(tm666) mutant worms, in which the lysosomal enzyme cathepsin gene is inactivated, were used. Pmyo-2::V1S and Pflp-21::SV2-ICR-DsRed plasmids were co-injected into the gonads of late L4-stage mutant worms with pRF4. After transgenic lines containing the introduced plasmids were obtained, three representative lines of each genotype were used for experiments
as §1

[4] = test system: polyubiquitinated proteins; experiment: Steady state levels of polyubiquitinated proteins (western blotting) in transgenic worms; conditions: transgenic animals treated with GlcNAc
Procedure: (§2) N-acetylglucosamine (GlcNAc) (Sigma) was dissolved in distilled water to prepare 1 M as stock solution. The stock solution was diluted with LB liquid medium. The L4-stage worms of each transgenic line were transferred to NGM plates containing a final concentration of 10 mM GlcNAc. Adult worms were washed with M9 buffer and subsequently with PBS containing 1% Triton X-100. The worm pellet was sonicated in PBS containing 1% Triton X-100, 1% (v/v) protease inhibitor cocktail (Sigma) and centrifuged to obtain the Triton-soluble (supernatant) and insoluble (pellet) fractions. Protein concentration was measured using the BCA protein assay kit (Pierce, Rockford, USA). Protein samples (3 μg for α-synuclein expression test and 50 μg to detect polyubiquitin proteins) were loaded onto 12% SDS-PAGE gels. The primary antibodies used for western blotting were monoclonal anti-α-synuclein antibody, 274 mAb and anti-ubiquitn antibody (ab7254; Abcam, Cambridge, Mass.). Chemiluminescence detection was performed using the LAS-3000 luminescence image analyzer, (Fujifilm, Tokyo, Japan), and Multi Gauge (y3.0) software.

[5] = test system: V1S+SV2 and daf-16(mu86); V1S+SV2 animals; experiment: Pharyngeal pumping analysis with GlcNAc treatment; conditions: 10 mM GlcNAc, both V1S+SV2 and daf-16(mu86)
Procedure: as §1, with “Pharyngeal pumping was counted for 1 min at RT using a fluorescence microscope. 25 worms from each strain were analyzed. The data were expressed as PPM (Pumps Per Minute). N-acetylglucosamine” for “N-acetylglucosamine”

[6] = test system: V1S+SV2 and daf-16(mu86); V1S+SV2 animals; experiment: Nerve degeneration in C. elegans BiFC model with GlcNAc treatment; conditions: 10 mM GlcNAc, both V1S+SV2 and daf-16(mu86)
Procedure: Worms were immobilized with 10 mM sodium azide in M9 buffer, mounted on 2% agar pads, and covered with a coverslip. Images of the worms were acquired using Olympus FV1000 confocal laser scanning microscopy (Olympus, Tokyo, Japan). N-acetylglucosamine (GlcNAc) (Sigma) was dissolved in distilled water to prepare 1 M as stock solution. The stock solution was diluted with LB liquid medium. The L4-stage worms of each transgenic line were transferred to NGM plates containing a final concentration of 10 mM GlcNAc. The present inventors then examined the degeneration of axonal processes from the URA motor neuron (Rogers et al., 2003). These nerves were intact in the wild-type N2 at day 8. Expression of SV2 in neurons caused neuritic bleb formation and nerve fragmentation in a small number of worms (FIGS. 23g, 23h, 23i, 23j, and 23k), indicating autonomous cellular toxicity of α-synuclein in neurons. These degenerative phenotypes were further exacerbated when […] was expressed in the pharyngeal muscle, and approximately 15% of nerves were completely lost (FIG. 23k). To verify nerve fragmentation, 3-D reconstruction of the stacked images of nerve processes was performed. […] Nerve degeneration worsened as the transgenic worms aged (FIG. 23j).

α-synuclein aggregates = experiment: Dot blot and western blot of α-synuclein aggregates in transgenic worms
Procedure: as §2, with “software. Adult worms of each strain were washed with M9 buffer and subsequently with PBS containing 1% Triton X-100. […] Chemiluminescence detection was performed using the LAS-3000 luminescence image analyzer and Multi Gauge (v3.0) software.” for “software.”

[7] = test system: V1S+SV2 and daf-16(mu86); V1S+SV2 animals; experiment: BiFC-positive inclusion body formation / aggregate transmission in C. elegans BiFC model with GlcNAc treatment
Procedure: Pmyo-2::V1S and Pflp-21::SV2-ICR-DsRed plasmids were co-injected into the gonads of late L4-stage N2 worms with a selection marker, pRF4 which expresses a mutant collagen gene, rol-6(su1006) (Mello, C. C., et al. 1991. Efficient gene transfer in C. elegans: extrachromosomal maintenance and integration of transforming sequences. The EMBO J 10, 3959-3970), to prepare double transgenic line expressing the BiFC pair. As a negative control for BiFC, Pmyo-2::V1S alone was injected into N2 worms with pRF4, and Pflp-21::SV2-ICR-DsRed alone was injected into unc-119(ed3) mutant worms with a selection marker, pCFJ151, which expresses unc-119(+) gene (Frokjaer-Jensen, et al. 2008. Single-copy insertion of transgenes in Caenorhabditis elegans. Nat. Genet 40, 1375-1383). The plasmid Pmyo-2::V1 was prepared to express the BiFC partial sequence only by introducing the stop codon right before the α-synuclein coding sequence in Pmyo-2::V1S and was prepared using a QuickChange Site-Directed Mutagenesis Kit (Stratagene, La Jolla, Calif.). Pmyo-2::V1 and Pflp-21::SV2-ICR-DsRed plasmids were then co-injected into N2 with pRF4. In addition, Pflp-21::DsRed was injected into N2 with pRF4 as a control for the effects of general protein overexpression in neurons. For chromosomal integration of the introduced plasmids, injected lines were exposed to UV irradiation. […]

[8] = test system: V1S+SV2 and daf-16(mu86); V1S+SV2 animals; experiment: Life span assay with GlcNAc treatment; conditions: 10 mM GlcNAc, both V1S+SV2 and daf-16(mu86)
Procedure: Eggs laid by adult mother worms were synchronously grown up to the L4 larval stage on NGM plates seeded with E. coli OP50 at 20° C. The L4-stage worms were transferred to NGM plates containing 100 mM 5-fluoro-2′-deoxyuridine (Sigma) to prevent them from producing progeny. The number of worms that were alive or dead was recorded every 1-2 days.
as §1

For `CC(=O)N[C@H]1C(O)O[C@H](CO)[C@@H](O)[C@@H]1O` (stereo partly drawn) [GlcNAc, N-acetylglucosamine], the “pathogenic phenotypes (nerve degeneration, pumping behavior, life span)” value ([1]; V1S or SV2 alone in N2 and daf-16(mu86), versus untreated animals) was “did not exhibit significant changes”, the “expression levels of α-synuclein” value ([1]; dot blot, GlcNAc treatment) was “not changed” and the “neuronal expression of flp-21 promoter (Ds-Red)” value ([1]; with or without GlcNAc treatment) was “strictly confined in neuronal cells”. For the same compound, the “expression of lysosomal genes and autophagy gene sqst-1/p62” value [2] was “increased”, the aging-related phenotypes [3] was “not rescued” and the “levels of polyubiquitinated proteins” value [4] was “decreased”. The pumping behavior [5] was “significantly alleviated”, the pumping behavior ([5]; listed as N-acetylglucosamine) was “increased” and the “phenotypes for nerve degeneration” value [6] was “significantly alleviated”. The “levels of high molecular weight (HM) α-synuclein aggregates” value (α-synuclein aggregates; Triton-insoluble (Tx-insol) fraction of transgenic worms, western blot) was “significantly decreased”, the “β-sheet-rich α-synuclein aggregates” value (α-synuclein aggregates; dot blot with Syn-02 antibody, transgenic worms) was “reduced” and the “formation of BiFC-positive inclusion bodies” value ([7]; 10 mM GlcNAc from L4-stage, both V1S+SV2 and daf-16(mu86), V1S+SV2 animals) was “reduced”. For the same compound, the “transmission of α-synuclein aggregates” value ([7]; BiFC experimental animal model) was “inhibiting”, the life span [8] was “significantly alleviated” and the life span ([8]; listed as N-acetylglucosamine) was “extended”.
